Test results taken from US20200024246A1, “POGOSTONE DERIVATIVES AND METHODS OF USING THE SAME” (Hamyard Associates LLC, priority 2018, published 2020).
Entries after “also recorded” stand apart in the source; their conditions may differ.

Columns and labels:
house flies [1] = experiment: Spray-cup testing, house flies (FIG. 3a); type: in vivo, house fly; conditions: Formula 13 2.5% w/v in water vs thymol 2.5% or 10% w/v
Protocol: (§1) 10 adults of various arthropod species used for this characterization were placed into 8 oz. ice cream cups with tulle placed over the top to prevent the escape of arthropods from the container. Test formulations were added to spray bottles ([…]™) and applied at the same distance and spray number to eliminate variation between manufacturer spray bottles. For all experiments, spray bottles were set to mist in order to prevent excess formulation from accumulating in the cups. […] Mortality was recorded at 1 min, 5 min, 10 min, 15 min, 30 min, 4 hours, and 8 hours for each replicate. A minimum of 3 replicates of 10 arthropods/cup/replicate were performed for each formulation. Data was modeled using a logarithmic regression to show the speed-to-kill of each formulation and highlight differences among treatment groups. Different spray amounts were used for each arthropod, depending on susceptibility, e.g.:
House flies=8 sprays, 3 in […]

maize weevils = experiment: Spray-cup testing, maize weevils (FIG. 3c); type: in vivo, maize weevil; conditions: Formula 13 2.5% w/v in water vs thymol 2.5% or 10% w/v
Protocol: as §1
Maize weevils=8 sprays, 3 in […]

[2] = test system: adult female Aedes aegypti mosquitoes; experiment: Formula 13 after pre-treatment with detoxification enzyme inhibitors (FIG. 10); type: in vivo
Protocol: Combinations of 2000 μg/mL Formula 13 and various detoxification enzyme inhibitors were applied to adult female mosquitoes in a volume of 0.2 μL to identify which detoxification pathway was most responsible for clearance of bioactive pogostone from the insect. A dose of 0.2 uL of either 1000 μg/mL of S,S,S-tributyl phosphorotrithioate (DEF) or 5000 μg/mL piperonyl butoxide (PBO) or 5000 μg/mL diethyl maleate (DEM) was applied 4 hours before a dose of 0.2 uL 2000 μg/mL of Formula 13 was applied to adult Aedes aegypti. […] The concentrations of inhibitors were chosen due to their inability to cause toxicity on their own at this application rate. The concentration of Formula 13 was chosen as the approximate LD25 of this compound against adult female Aedes aegypti mosquitoes. Combinations that caused statistically higher levels of mortality than pyrone 7 applied alone were considered informative. The goal of this exploration was to determine which processes might be most valuable in the detoxification of these derivatives.

adult house flies = experiment: Topical application of pogostone derivatives with PBO or plant essential oil on house flies; type: in vivo, house fly; conditions: house flies
Protocol: Combinations of select pogostone derivatives with select concentrations of PBO or plant essential oils was performed. […] Synergists were applied as a subsequent application directly after the application of pogostone derivatives. Concentrations of synergists (plant oils or PBO) were chosen that produced no mortality at 24 hours when applied alone.
To assess the ability of PBO to increase the toxicity of a wide variety of pogostone derivatives, PBO and the pogostone derivatives were applied in combination to the pronotum of house flies.
Finally, the potential of plant essential oils to synergize the effect of Formula 30 was assessed.

[3] = test system: Giant foxtail (Setaria faberi); experiment: Soil drench herbicidal test, foxtail; type: in vivo; conditions: for % mortality: Foxtail, Rep 1 and 2
Protocol: (§2) Dandelion (Taraxacum officinale) seeds were obtained from the Department of Agronomy at Iowa State University. Individual seeds were sown for each pot (6″ wide×4.5″ deep) with approximately 800 mL of soil for each plan. Only plants that germinated were used for the study. Plants were treated 1-2 weeks post emergence. Plants were watered every 2-3 days as needed. Giant foxtail (Setaria faberi) seeds were obtained from the Department of Agronomy at Iowa State University. Three seeds were sown for each pot (6″ wide×4.5″ deep) with approximately 800 mL of soil for each plan. Only plants that germinated were used for the study. Plants were treated 1-2 weeks post emergence. Plants were watered every 2-3 days as needed.
Formulations of the various active ingredients were created using the disclosed pogostone derivatives and Triton-X 100 to aid in the solvation of the active ingredient. Formulations consisted of 0.5% active ingredient by weight. […] 40 mL of formulation (either […] active ingredient) was applied to each pot containing approximately 3-5 plants per pot at 2-3 weeks after emergence. Observations were performed 3 days and 2 weeks after soil drench to determine the effects of the treatments on the various types and stages of plants. Phytotoxicity is reported as percentage of total plants treated compared to a control treatment that was exposed to a similar formulation (without the active monoterpenoid derivatives). Technical grade 2,4-dichlorophenoxyacetic acid (2,4-D) was used as the commercial comparison for phytotoxicity. For its solvation, potassium hydroxide was introduced at a 1:1 molar ratio with 2,4-D to ensure this molecule would adequately dissolve in water.

[4] = test system: Dandelion (Taraxacum officinale); experiment: Soil drench herbicidal test, dandelion; type: in vivo; conditions: 40 mL of 0.5% soil drench, FIG. 12; words
Protocol: as §2
Formulations of the various active ingredients were created using the disclosed pogostone derivatives and Triton-X 100 to aid in the solvation of the active ingredient. Formulations consisted of 0.5% active ingredient by weight. […] 40 mL of formulation ([…] active ingredient) was applied to each pot containing approximately 3-5 plants per pot at 2-3 weeks after emergence. Observations were performed 3 days and 2 weeks after soil drench to determine the effects of the treatments on the various types and stages of plants. […]

adult female mosquitoes = experiment: whole plant or invertebrate; conditions: topical
Protocol: The first group of DHAA-based derivatives that were tested included Formula A2, Formula B3, Formula C3, and Formula D3. A solution of 0.5% or 1.5% of each of these compounds was applied to the mosquitoes, as described above. […] Acetone was used as a control.

[5] = test system: two-spotted spider mites, soybean aphids, maize weevils, German cockroaches, and European corn borers; experiment: Screen of Formula 13 against other arthropod pest species; type: in vivo; conditions: words
house flies [6] = experiment: Topical application on house flies; conditions: House Fly Toxicity; topical
[7] = test system: Pyrethroid-resistant strain of Aedes aegypti (Puerto Rican strain); experiment: Toxicity to insecticide-resistant mosquitoes (FIG. 1); conditions: dose response curves FIG. 1

## CC(C)CCC(=O)c1c(O)c2ccccc2oc1=O [Formula 13]
House flies [1]
  efficacy (mortality) compared with thymol: outperformed thymol at all time points; also recorded: surpassed the efficacy of thymol at both an equal or higher concentration
Maize weevils
  efficacy (mortality) compared with thymol: outperformed thymol at all time points; also recorded: performed better than thymol applied at an equal concentration and as well as thymol applied in a 10% concentration
[2]; 1000 μg/mL DEF 4 hours before 2000 μg/mL Formula 13, 0.2 uL each
  toxicity of Formula 13 after DEF (inhibition of esterases): significantly increased the toxicity of Formula 13
[2]; 5000 μg/mL DEM 4 hours before 2000 μg/mL Formula 13, 0.2 uL each
  toxicity of Formula 13 after DEM (decreasing glutathione S-transferase activity): second-most important enzyme system
[2]; 5000 μg/mL PBO 4 hours before 2000 μg/mL Formula 13, 0.2 uL each
  toxicity of Formula 13 after PBO (inhibition of monooxygenases): most significant for increasing the toxicity of Formula 13
[2]; 0.2 uL applied topically to adult female Aedes aegypti
  approximate LD25 (concentration applied): ~2000 µg/mL
Adult house flies; LD50 alone versus in combination with PBO
  SR (synergistic ratio): 17.8
Adult house flies; topical, derivative alone or in combination with PBO
  LD50: 5950 µg/g
[3]; 40 mL of 0.5% soil drench, FIG. 12, words
  phytotoxicity in foxtail: significant phytotoxicity
[3]; 2 weeks after soil drench - 40 mL of 0.5% solution
  % mortality: 100%
[3]; 3 days after soil drench - 40 mL of 0.5% solution
  % mortality: 50%
[4]
  phytotoxicity in dandelion: little phytotoxicity
Adult female mosquitoes; mosquito, 1 hour
  1-hour Knockdown EC50 (μg/g mosquito): 182 μg/g mosquito
Adult female mosquitoes; 24 h, read-out: 24-hour Mortality LD50 (μg/g mosquito)
  LD50: 119 mg/kg
[5]
  toxicity compared with thymol: more toxic than a commonly used natural insecticide, thymol
House flies [6]
  LD50 (ug/g fly): 5950 ug/g fly
[7]
  insecticidal capacity compared with natural pyrethrins: outperformed natural pyrethrins
